# Measurements published in ChEMBL document CHEMBL4706476, “Novel Tetrahydropyrido[4,3-d]pyrimidines as Potent Inhibitors of Chaperone Heat Shock Protein 90” (J Med Chem, 2016).
# Columns and labels:
# HCT-116 [1] = test: Antitumor activity against human HCT-116 cells xenografted in nude mouse assessed as reduction in relative tumor volume by measuring T/C ratio at 60 mg/kg, ip administered every other day for 16 days and monitored every 3 days; format: functional; conditions: time 16 day
# [2] = Toxicity in nude mouse xenografted with human HCT-116 cells assessed as change in body weight at 40 to 60 mg/kg, ip administered every other day for 16 days and monitored every 3 days; conditions: in vivo, 384 h
# [3] = Apparent volume of distribution in rat at 50 mg/kg, po measured upto 24 hrs by LC-MS/MS analysis; format: ADME, organism-based; conditions: in vivo
# [4] = Apparent volume of distribution in rat at 10 mg/kg, iv measured upto 24 hrs by LC-MS/MS analysis; format: ADME, organism-based; conditions: in vivo, read-out: Vz
# HCT-116 [5] = test: Antitumor activity against human HCT-116 cells xenografted in nude mouse assessed as reduction in relative tumor volume by measuring T/C ratio at 40 mg/kg, ip administered every other day for 16 days and monitored every 3 days; format: functional; conditions: time 16 day
# [6] = Drug distribution in spleen of mouse xenografted with human HCT-116 cells at 60 mg/kg, iv by LC-MS/MS analysis; conditions: in vivo
# [7] = Distribution coefficient, logD of compound at pH 7.4; format: physicochemical; conditions: octanol/water
# [8] = Intrinsic aqueous solubility of the compound; format: physicochemical
# BT-474 = test: Antiproliferative activity against human BT-474 assessed as reduction in cell viability incubated for 72 hrs by MTT assay; format: functional, cell-based; conditions: BT-474, 72 h
# MDA-MB-468 = test: Antiproliferative activity against human MDA-MB-468 assessed as reduction in cell viability incubated for 72 hrs by MTT assay; format: functional, cell-based; conditions: MDA-MB-468, 72 h
# CYP2D6 = CYP2D6 (Homo sapiens, UniProt P10635); test: Inhibition of CYP2D6 in human liver microsomes at 10 uM using dextromethorphan as substrate preincubated for 5 mins followed by NADPH addition and measured after 20 mins by LC-MS/MS analysis relative to control; format: ADME; conditions: probe dextromethorphan, time 25 min
# CYP2D6, sequence (P10635 whole entry): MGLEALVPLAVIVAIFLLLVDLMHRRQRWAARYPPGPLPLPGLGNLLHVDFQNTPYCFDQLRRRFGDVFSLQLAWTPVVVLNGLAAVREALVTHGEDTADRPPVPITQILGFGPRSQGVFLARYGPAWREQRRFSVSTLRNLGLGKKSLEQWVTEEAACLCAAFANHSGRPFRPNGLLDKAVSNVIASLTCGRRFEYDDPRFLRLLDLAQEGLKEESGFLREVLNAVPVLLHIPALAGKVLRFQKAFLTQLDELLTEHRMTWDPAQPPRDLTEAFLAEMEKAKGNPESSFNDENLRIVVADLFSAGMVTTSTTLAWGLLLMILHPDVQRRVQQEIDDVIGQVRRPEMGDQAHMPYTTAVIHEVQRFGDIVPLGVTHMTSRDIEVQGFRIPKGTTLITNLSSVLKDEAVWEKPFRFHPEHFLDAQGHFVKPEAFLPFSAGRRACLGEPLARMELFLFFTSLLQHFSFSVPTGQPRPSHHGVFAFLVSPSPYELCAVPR
# [9] = Half life in human liver microsomes at 1 uM preincubated for 5 mins followed by NADPH addition and measured up to 120 mins by LC-MS/MS analysis; format: ADME, Microsome; conditions: 2 h, time <=125 min
# [10] = Permeability of the compound at pH 7.4 by PAMPA; format: ADME; conditions: read-out: permeability
# CYP2C19 = CYP2C19 (Homo sapiens, UniProt P33261); test: Inhibition of CYP2C19 in human liver microsomes at 10 uM using mephenytoin as substrate preincubated for 5 mins followed by NADPH addition and measured after 20 mins by LC-MS/MS analysis relative to control; conditions: probe mephenytoin
# CYP2C19, sequence (P33261 whole entry): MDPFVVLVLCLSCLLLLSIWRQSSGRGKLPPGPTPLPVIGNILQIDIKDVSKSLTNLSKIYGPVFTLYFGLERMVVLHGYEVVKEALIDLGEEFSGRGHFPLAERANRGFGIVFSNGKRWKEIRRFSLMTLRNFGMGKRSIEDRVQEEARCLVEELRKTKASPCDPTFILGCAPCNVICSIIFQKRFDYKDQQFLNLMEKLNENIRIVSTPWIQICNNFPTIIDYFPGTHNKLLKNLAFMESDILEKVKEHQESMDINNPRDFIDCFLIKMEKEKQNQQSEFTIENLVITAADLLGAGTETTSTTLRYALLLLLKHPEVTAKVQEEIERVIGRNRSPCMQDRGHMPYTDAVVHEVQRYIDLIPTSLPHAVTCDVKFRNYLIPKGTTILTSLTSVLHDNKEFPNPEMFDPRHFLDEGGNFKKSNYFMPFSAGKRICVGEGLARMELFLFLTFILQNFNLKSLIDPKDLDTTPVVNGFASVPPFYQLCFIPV
# A549 = test: Antiproliferative activity against human A549 assessed as reduction in cell viability incubated for 72 hrs by MTT assay; format: functional, cell-based; conditions: A549, 72 h
# K562 = test: Antiproliferative activity against human K562 assessed as reduction in cell viability incubated for 72 hrs by MTT assay; format: functional, cell-based; conditions: K562, 72 h
# L02 = test: Cytotoxicity against human L02 cells assessed as reduction in cell viability incubated for 72 hrs by MTT assay; format: cell-based; conditions: L02, 72 h
# HepG2 = test: Antiproliferative activity against human HepG2 assessed as reduction in cell viability incubated for 72 hrs by MTT assay; format: functional, cell-based; conditions: HepG2, 72 h
# [11] = Drug distribution in blood of mouse xenografted with human HCT-116 cells at 60 mg/kg, iv by LC-MS/MS analysis; conditions: in vivo
# [12] = Drug distribution in liver of mouse xenografted with human HCT-116 cells at 60 mg/kg, iv by LC-MS/MS analysis; conditions: in vivo
# MDA-MB-231 = test: Antiproliferative activity against human MDA-MB-231 assessed as reduction in cell viability incubated for 72 hrs by MTT assay; format: functional, cell-based; conditions: MDA-MB-231, 72 h
# HCT-116 [13] = test: cells; conditions: Homo sapiens, HCT-116, 72 h
# Description: Antiproliferative activity against human HCT-116 cells assessed as reduction in cell viability incubated for 72 hrs by MTT assay
# T47D = test: Antiproliferative activity against human T47D assessed as reduction in cell viability incubated for 72 hrs by MTT assay; format: functional, cell-based
# CYP3A4 = CYP3A4 (Homo sapiens, UniProt P08684); test: Inhibition of CYP3A4 in human liver microsomes at 10 uM using midazolam as substrate preincubated for 5 mins followed by NADPH addition and measured after 20 mins by LC-MS/MS analysis relative to control; format: ADME; conditions: probe midazolam, time 25 min
# CYP3A4, sequence (P08684 whole entry): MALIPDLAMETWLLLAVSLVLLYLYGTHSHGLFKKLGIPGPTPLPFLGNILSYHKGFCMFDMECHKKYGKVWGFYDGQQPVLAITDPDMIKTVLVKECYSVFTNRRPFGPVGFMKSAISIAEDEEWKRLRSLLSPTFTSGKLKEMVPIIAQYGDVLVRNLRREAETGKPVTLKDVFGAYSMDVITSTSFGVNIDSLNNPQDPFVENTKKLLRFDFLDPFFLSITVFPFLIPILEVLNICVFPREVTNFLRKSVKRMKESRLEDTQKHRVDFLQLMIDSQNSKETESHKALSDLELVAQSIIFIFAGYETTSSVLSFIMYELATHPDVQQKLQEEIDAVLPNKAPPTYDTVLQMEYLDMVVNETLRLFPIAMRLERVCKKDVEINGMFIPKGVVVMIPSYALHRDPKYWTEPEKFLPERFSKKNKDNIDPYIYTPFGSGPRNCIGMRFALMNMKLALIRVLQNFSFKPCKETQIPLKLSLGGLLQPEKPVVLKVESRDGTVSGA
# MKN-28 = test: Antiproliferative activity against human MKN-28 assessed as reduction in cell viability incubated for 72 hrs by MTT assay; format: functional, cell-based; conditions: MKN-28, 72 h
# CYP2C9 = CYP2C9 (Homo sapiens, UniProt P11712); test: Inhibition of CYP2C9 in human liver microsomes at 10 uM using diclofenac as substrate preincubated for 5 mins followed by NADPH addition and measured after 20 mins by LC-MS/MS analysis relative to control; format: ADME; conditions: probe diclofenac, time 25 min
# CYP2C9, sequence (P11712 whole entry): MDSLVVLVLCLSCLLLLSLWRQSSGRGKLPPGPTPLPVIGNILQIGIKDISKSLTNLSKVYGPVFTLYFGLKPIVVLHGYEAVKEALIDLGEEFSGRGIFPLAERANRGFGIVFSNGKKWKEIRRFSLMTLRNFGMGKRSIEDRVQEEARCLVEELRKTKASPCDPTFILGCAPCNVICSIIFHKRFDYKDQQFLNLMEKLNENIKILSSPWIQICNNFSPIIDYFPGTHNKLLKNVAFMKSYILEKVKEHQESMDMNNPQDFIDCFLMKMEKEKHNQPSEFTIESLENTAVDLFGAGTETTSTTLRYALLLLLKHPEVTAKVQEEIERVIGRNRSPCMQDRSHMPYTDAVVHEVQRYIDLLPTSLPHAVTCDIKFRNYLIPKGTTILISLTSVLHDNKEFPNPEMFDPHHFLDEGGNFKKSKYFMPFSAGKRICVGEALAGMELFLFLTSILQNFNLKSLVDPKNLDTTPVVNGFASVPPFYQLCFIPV
# [14] = Apparent clearance during terminal phase in rat at 50 mg/kg, po measured upto 24 hrs by LC-MS/MS analysis; format: ADME, organism-based; conditions: in vivo, read-out: CLz/F (converted)
# Endoplasmin = Endoplasmin (Homo sapiens, UniProt P14625); test: Displacement of FITC-geldanamycin from N-terminal GRP94 (unknown origin) after 30 mins by fluorescence polarization competitive binding assay
# Endoplasmin, sequence (P14625 whole entry): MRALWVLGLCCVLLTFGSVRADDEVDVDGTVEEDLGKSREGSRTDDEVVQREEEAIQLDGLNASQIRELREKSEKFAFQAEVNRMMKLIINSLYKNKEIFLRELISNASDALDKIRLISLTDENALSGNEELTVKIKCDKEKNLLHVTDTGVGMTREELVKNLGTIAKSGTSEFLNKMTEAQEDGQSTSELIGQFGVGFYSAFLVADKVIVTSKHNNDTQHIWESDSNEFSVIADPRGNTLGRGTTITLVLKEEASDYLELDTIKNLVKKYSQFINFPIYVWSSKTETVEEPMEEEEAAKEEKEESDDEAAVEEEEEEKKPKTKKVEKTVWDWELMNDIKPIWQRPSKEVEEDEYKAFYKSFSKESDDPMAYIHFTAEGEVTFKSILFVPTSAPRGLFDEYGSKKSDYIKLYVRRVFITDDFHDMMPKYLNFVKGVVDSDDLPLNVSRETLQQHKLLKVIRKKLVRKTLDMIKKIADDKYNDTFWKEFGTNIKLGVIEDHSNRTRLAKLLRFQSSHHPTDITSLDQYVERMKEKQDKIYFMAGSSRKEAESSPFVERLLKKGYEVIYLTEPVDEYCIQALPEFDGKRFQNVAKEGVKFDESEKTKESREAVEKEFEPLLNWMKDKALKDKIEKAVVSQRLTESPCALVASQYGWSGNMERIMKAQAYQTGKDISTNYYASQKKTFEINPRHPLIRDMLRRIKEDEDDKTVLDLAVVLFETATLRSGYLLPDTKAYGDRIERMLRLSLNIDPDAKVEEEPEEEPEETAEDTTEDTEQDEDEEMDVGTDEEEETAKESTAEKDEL
# [15] = Ocular toxicity in Sprague-Dawley rat retina damage model assessed as induction of retinal cell death at 20 mg/kg, iv administered for 2 consecutive days by TUNEL staining based analysis; format: organism-based; conditions: in vivo, 48 h, time 2 day
# [16] = Half-life in rat at 50 mg/kg, po measured upto 24 hrs by LC-MS/MS analysis; format: ADME, organism-based; conditions: in vivo
# [17] = Apparent clearance during terminal phase in rat at 10 mg/kg, iv measured upto 24 hrs by LC-MS/MS analysis; format: ADME, organism-based; conditions: in vivo
# CYP1A2 = CYP1A2 (Homo sapiens, UniProt P05177); test: Inhibition of CYP1A2 in human liver microsomes at 10 uM using phenacetin as substrate preincubated for 5 mins followed by NADPH addition and measured after 20 mins by LC-MS/MS analysis relative to control; format: ADME; conditions: probe phenacetin, time 25 min
# CYP1A2, sequence (P05177 whole entry): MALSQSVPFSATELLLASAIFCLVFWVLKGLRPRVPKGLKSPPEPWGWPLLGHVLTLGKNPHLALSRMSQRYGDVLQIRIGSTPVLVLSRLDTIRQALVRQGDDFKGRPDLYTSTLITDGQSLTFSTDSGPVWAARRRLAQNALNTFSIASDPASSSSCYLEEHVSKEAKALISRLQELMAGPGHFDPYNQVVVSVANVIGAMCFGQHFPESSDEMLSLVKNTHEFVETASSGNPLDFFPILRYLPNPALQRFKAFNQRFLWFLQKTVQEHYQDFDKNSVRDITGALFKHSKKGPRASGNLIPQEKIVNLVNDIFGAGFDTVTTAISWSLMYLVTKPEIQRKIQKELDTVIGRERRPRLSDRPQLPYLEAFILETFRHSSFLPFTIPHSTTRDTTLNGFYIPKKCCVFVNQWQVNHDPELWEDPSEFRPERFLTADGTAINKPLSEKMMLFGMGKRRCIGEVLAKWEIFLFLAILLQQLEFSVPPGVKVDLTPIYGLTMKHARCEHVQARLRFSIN
# [18] = AUC (0 to t) in rat at 10 mg/kg, iv measured upto 24 hrs by LC-MS/MS analysis; format: ADME, organism-based; parameters: route intravenous, dose 10 mg/kg, time <=24; conditions: in vivo
# [19] = Oral bioavailability in rat at 50 mg/kg measured upto 24 hrs by LC-MS/MS analysis; format: ADME, organism-based; conditions: in vivo
# [20] = Cmax in rat at 50 mg/kg, po measured upto 24 hrs by LC-MS/MS analysis; format: ADME, organism-based; parameters: route oral, dose 50 mg/kg, time <=24; conditions: in vivo
# SK-BR-3 = test: Antiproliferative activity against human SK-BR-3 assessed as reduction in cell viability incubated for 72 hrs by MTT assay; format: functional, cell-based; conditions: SK-BR-3, 72 h
# [21] = Half-life in rat at 10 mg/kg, iv measured upto 24 hrs by LC-MS/MS analysis; format: ADME, organism-based; conditions: in vivo
# MV4-11 = test: Antiproliferative activity against human MV4-11 assessed as reduction in cell viability incubated for 72 hrs by MTT assay; format: functional, cell-based; conditions: MV4-11, 72 h
# [22] = AUC (0 to t) in rat at 50 mg/kg, po measured upto 24 hrs by LC-MS/MS analysis; format: ADME, organism-based; parameters: route oral, dose 50 mg/kg, time <=24; conditions: in vivo
# [23] = Tmax in rat at 50 mg/kg, po measured upto 24 hrs by LC-MS/MS analysis; format: ADME, organism-based; conditions: in vivo
# U2OS = test: Antiproliferative activity against human U2OS assessed as reduction in cell viability incubated for 72 hrs by MTT assay; format: functional, cell-based
# [24] = Drug concentration in tumor of mouse xenografted with human HCT-116 cells at 60 mg/kg, iv measured at 48 hrs by LC-MS/MS analysis; conditions: in vivo
# [25] = Metabolic stability in human liver microsomes assessed as parent compound remaining at 1 uM preincubated for 5 mins followed by NADPH addition and measured up to 120 mins by LC-MS/MS analysis; format: ADME, Microsome; conditions: 2 h, time <=125 min
# MCF7 = test: cells; conditions: Homo sapiens, MCF7, 72 h
# [26] = Intrinsic clearance in human liver microsomes at 1 uM preincubated for 5 mins followed by NADPH addition and measured up to 120 mins by LC-MS/MS analysis; format: ADME, Microsome; conditions: 2 h, time <=125 min
# [27] = target: Heat shock protein HSP 90-alpha (Homo sapiens, UniProt P07900); test: Displacement of FITC-geldanamycin from N-terminal HSP90alpha (unknown origin) after 30 mins by fluorescence polarization competitive binding assay
structure (smiles),measurement,setting,value
CCNc1nc(OCCOC)nc2c1CN(C(=O)c1cc(C(C)C)c(O)cc1O)CC2.Cl,T/C,HCT-116 [1],23%
same,Activity,[2],Non-Toxic
same,Vz,[3],1620.19 L/kg
same,Vd,[4],29.6 L/kg
same,T/C,HCT-116 [5],45%
CCNc1nc(OCCOC)nc2c1CN(C(=O)c1cc(C(C)C)c(O)cc1O)CC2,Drug uptake,[6],Active
same,logD,[7],2.32
same,solubility,[8],192 µg/mL
same,IC50,BT-474,0.095 µM
same,IC50,MDA-MB-468,0.135 µM
same,"inhibition at 20 min, 10 µM",CYP2D6,48%
same,t1/2,[9],3.53 h
same,Papp,[10],71.5 ×10⁻⁶ cm/s
same,"inhibition at 20 min, 10 µM",CYP2C19,21%
same,IC50,A549,0.194 µM
same,IC50,K562,0.119 µM
same,IC50,L02,34 µM
same,IC50,HepG2,0.153 µM
same,Drug uptake,[11],Active
same,Drug uptake,[12],Active
same,IC50,MDA-MB-231,0.119 µM
same,Vz,[3],1620.19 L/kg
same,IC50,HCT-116 [13],0.14 µM
same,Vd,[4],29.6 L/kg
same,IC50,T47D,0.195 µM
same,"inhibition at 20 min, 10 µM",CYP3A4,22%
same,IC50,MKN-28,0.434 µM
same,"inhibition at 20 min, 10 µM",CYP2C9,36%
same,CL/F,[14],2060 mL/min/kg
same,IC50,Endoplasmin,0.729 µM
same,Activity,[15],Non-Toxic
same,half-life,[16],9.4 h
same,CLz/F,[17],87.5 mL/min/kg
same,"inhibition at 20 min, 10 µM",CYP1A2,8%
same,AUC(0-t) at 24 h,[18],1930 ng·h/mL
same,bioavailability,[19],4.23%
same,Cmax,[20],72.6 ng/mL
same,IC50,SK-BR-3,0.243 µM
same,half-life,[21],3.95 h
same,IC50,MV4-11,0.027 µM
same,AUC(0-t) at 24 h,[22],409 ng·h/mL
same,Tmax,[23],0.5 h
same,IC50,U2OS,0.052 µM
same,Ct,[24],> 3 uM/L
same,Stabilty,[25],90.4%
same,IC50,MCF7,0.1 µM
same,CLint,[26],4.45 mL/min/kg
same,IC50,[27],0.028 µM
